Test results from US8940739B2, “Compound of a reverse-turn mimetic and a production method and use therefor” (JW Pharmaceutical Corporation, priority 2010, dated 2015).

system: MV-4-11 (human, Acute Myeloid Leukemia cell line) cells; test: Cell growth inhibition assay, GI50 of MV-4-11; format: cell-based; conditions: Homo sapiens, MV4-11, 72 h, MV-4-11 cells
Experimental: The anti-proliferative activity (cell growth inhibition assay) of the compounds according to the present invention against AML (Acute Myeloid Leukemia) cancer cells was measured. […] The lower the GI50 value, the higher the anti-proliferative activity.
A cell growth Inhibition assay was performed to investigate the rate of inhibition of cell proliferation by the compounds of the present invention. MV-4-11 (human, Acute Myeloid Leukemia cell line) cells were cultured in Iscove's modified Dulbecco's medium (IMDM) including 10% fetal bovine serum (FBS), 1× penicillin/streptomycin (10,000 units/ml Penicillin, […] Streptomycin in 0.85% NaCl). MV-4-11 cells were harvested with the IMDM and 5×10^4 cells/well were transferred to each well of 96-well culture plates (Nunc, #167008).
The compounds of Examples 1 to 5 were exposed to serial dilution and duplicated for each concentration. For the serial dilution, the compounds of the present invention were repeatedly diluted with the same volume of media onto 96-well assay block (costar, #3956). After the dilution, each compound was added to each well.
Also, the background absorbance was measured during the treatment with the test compounds by replacing the test compound with IMDM in the negative control plate. The plates were incubated for three days (72 hours) at 37 in the humidified incubator containing 5% CO2. On the last day, 20 µl of a CellTiter 96 Aqueous One Solution (Promega #G3581) was added to the culture in each well and the plates were incubated for a few hours at 37 in the humidified incubator containing 5% CO2. After the incubation, the absorbance of each cell was measured at 490 nm using an EnVision (Perkinelmer, USA).
The GI50 values were calculated using a Prism 3.0 program.

Structure (SMILES) | GI50
C=CCN1CC(=O)N2[C@@H](Cc3ccc(O)cc3)C(=O)N(Cc3cccc4c(C(=O)N5CCN(Cc6ccc(OC)cc6)CC5)cn(C)c34)C[C@@H]2N1C(=O)NCc1ccccc1 [Compound E-36] | 8.4 nM
C=CCN1CC(=O)N2[C@@H](Cc3ccc(O)cc3)C(=O)N(Cc3cccc4c(C(=O)N5CCN(Cc6ccccc6)CC5)cn(C)c34)C[C@@H]2N1C(=O)NCc1ccccc1 [Compound E-26] | 2.3 nM
C=CCN1CC(=O)N2[C@@H](Cc3ccc(O)cc3)C(=O)N(Cc3cccc4c(-c5ccc(NC(=O)CCCN)cc5)cn(C)c34)C[C@@H]2N1C(=O)NCc1ccccc1 [Compound D-70] | 4.4 nM
C=CCN1CC(=O)N2[C@@H](Cc3ccc(O)cc3)C(=O)N(Cc3cccc4c(C(=O)N5CCC(NC(=O)OC(C)(C)C)CC5)cn(C)c34)C[C@@H]2N1C(=O)NCc1ccccc1 [Compound E-56] | 3.1 nM
C=CCN1CC(=O)N2[C@@H](Cc3ccc(O)cc3)C(=O)N(Cc3cccc4c(C(=O)N5CCN(c6ccccc6)CC5)cn(C)c34)C[C@@H]2N1C(=O)NCc1ccccc1 [Compound E-37] | 16.4 nM
C=CCN1CC(=O)N2[C@@H](Cc3ccc(O)cc3)C(=O)N(Cc3cccc4c(-c5ccc(NC(=O)CCCNCC(N)=O)cc5)cn(C)c34)C[C@@H]2N1C(=O)NCc1ccccc1 [Compound D-71] | 1.9 nM
C=CCN1CC(=O)N2[C@@H](Cc3ccc(O)cc3)C(=O)N(Cc3cccc4c(-c5cccc(C(=O)NCc6ccccc6)c5)cn(C)c34)C[C@@H]2N1C(=O)NCc1ccccc1 [Compound D-28] | 5.5 nM
C=CCN1CC(=O)N2[C@@H](Cc3ccc(O)cc3)C(=O)N(Cc3cccc4c(-c5ccc(NC(=O)C6CCN(C(C)=O)CC6)nc5)cn(C)c34)C[C@@H]2N1C(=O)NCc1ccccc1 [Compound D-89] | 1.3 nM
C=CCN1CC(=O)N2[C@@H](Cc3ccc(O)cc3)C(=O)N(Cc3cccc4c(-c5ccc(C(=O)NN6C(C)CNCC6C)cc5)cn(C)c34)C[C@@H]2N1C(=O)NCc1ccccc1 (stereo partly drawn) [Compound D-32] | 1.3 nM
C=CCN1CC(=O)N2[C@@H](Cc3ccc(O)cc3)C(=O)N(Cc3cccc4c(-c5ccc(NC(=O)N6CCC(N(C)C)CC6)cc5)cn(C)c34)C[C@@H]2N1C(=O)NCc1ccccc1 [Compound D-65] | 1.3 nM
C=CCN1CC(=O)N2[C@@H](Cc3ccc(O)cc3)C(=O)N(Cc3cccc4c(-c5ccc(NC(=O)N6CC(N7CCC(OC)CC7)C6)cc5)cn(C)c34)C[C@@H]2N1C(=O)NCc1ccccc1 [Compound D-66-1] | 1.4 nM
C=CCN1CC(=O)N2[C@@H](Cc3ccc(O)cc3)C(=O)N(Cc3cccc4c(C(=O)N5CCN(Cc6ccc(C)cc6)CC5)cn(C)c34)C[C@@H]2N1C(=O)NCc1ccccc1 [Compound E-27] | 13.5 nM
C=CCN1CC(=O)N2[C@@H](Cc3ccc(O)cc3)C(=O)N(Cc3cccc4c(-c5ccc(NC(=O)N6CCN(C)CC6)nc5)cn(C)c34)C[C@@H]2N1C(=O)NCc1ccccc1 [Compound D-87] | 1.3 nM
C=CCN1CC(=O)N2[C@@H](Cc3ccc(O)cc3)C(=O)N(Cc3cccc4c(-c5ccc(NC(=O)c6ccc(-n7ccnc7)nc6)cc5)cn(C)c34)C[C@@H]2N1C(=O)NCc1ccccc1 [Compound D-68] | 1.4 nM
C=CCN1CC(=O)N2[C@@H](Cc3ccc(O)cc3)C(=O)N(Cc3cccc4c(-c5ccc(C(=O)NCc6ccccc6)cc5)cn(C)c34)C[C@@H]2N1C(=O)NCc1ccccc1 [Compound D-27] | 4.3 nM
C=CCN1CC(=O)N2[C@@H](Cc3ccc(O)cc3)C(=O)N(Cc3cccc4c(C(=O)N(C)CCCNC(C)C)cn(C)c34)C[C@@H]2N1C(=O)NCc1ccccc1 [Compound F-19] | 1.5 nM
C=CCN1CC(=O)N2[C@@H](Cc3ccc(O)cc3)C(=O)N(Cc3cccc4c(-c5ccc(C(=O)NNC)cc5)cn(C)c34)C[C@@H]2N1C(=O)NCc1ccccc1 [Compound D-33] | 1.4 nM
C=CCN1CC(=O)N2[C@@H](Cc3ccc(O)cc3)C(=O)N(Cc3cccc4c(-c5ccc(NC(=O)C6CCCN(C)C6)cc5)cn(C)c34)C[C@@H]2N1C(=O)NCc1ccccc1 (stereo partly drawn) [Compound D-63] | 1.3 nM
C=CCN1CC(=O)N2[C@@H](Cc3ccc(O)cc3)C(=O)N(Cc3cccc4c(-c5ccc(NC(=O)Nc6ccc(OC)cc6)nc5)cn(C)c34)C[C@@H]2N1C(=O)NCc1ccccc1 [Compound D-86] | 4.9 nM
C=CCN1CC(=O)N2[C@@H](Cc3ccc(O)cc3)C(=O)N(Cc3cccc4c(C(=O)N5CCN(C6CCCC6)CC5)cn(C)c34)C[C@@H]2N1C(=O)NCc1ccccc1 [Compound E-18] | 20.9 nM

The next lines start with the values.

GI50 | Structure (SMILES)
1.6 nM | C=CCN1CC(=O)N2[C@@H](Cc3ccc(O)cc3)C(=O)N(Cc3cccc4c(C(=O)NCc5cccc(N6CCOCC6)n5)cn(C)c34)C[C@@H]2N1C(=O)NCc1ccccc1 [Compound F-50]
17.8 nM | C=CCN1CC(=O)N2[C@@H](Cc3ccc(O)cc3)C(=O)N(Cc3cccc4c(C(=O)N(C)Cc5ccccn5)cn(C)c34)C[C@@H]2N1C(=O)NCc1ccccc1 [Compound F-43]
17.2 nM | C=CCN1CC(=O)N2[C@@H](Cc3ccc(O)cc3)C(=O)N(Cc3cccc4c(C(=O)N(C)Cc5ccncc5)cn(C)c34)C[C@@H]2N1C(=O)NCc1ccccc1 [Compound F-40]
1.2 nM | C=CCN1CC(=O)N2[C@@H](Cc3ccc(O)cc3)C(=O)N(Cc3cccc4c(C(=O)Nc5ccc(N6CCC(N(C)C)CC6)nc5)cn(C)c34)C[C@@H]2N1C(=O)NCc1ccccc1 [Compound G-45]
6.1 nM | C=CCN1CC(=O)N2[C@@H](Cc3ccc(O)cc3)C(=O)N(Cc3cccc4c(C(=O)N(C)CCCc5c(C)nn(C)c5C)cn(C)c34)C[C@@H]2N1C(=O)NCc1ccccc1 [Compound F-38]
4.6 nM | C=CCN1CC(=O)N2[C@@H](Cc3ccc(O)cc3)C(=O)N(Cc3cccc4c(C(=O)NCCc5cccnc5)cn(C)c34)C[C@@H]2N1C(=O)NCc1ccccc1 [Compound F-52]
9.1 nM | C=CCN1CC(=O)N2[C@@H](Cc3ccc(O)cc3)C(=O)N(Cc3cccc4c(C(=O)NCc5ccccn5)cn(C)c34)C[C@@H]2N1C(=O)NCc1ccccc1 [Compound F-42]
1.7 nM | C=CCN1CC(=O)N2[C@@H](Cc3ccc(O)cc3)C(=O)N(Cc3cccc4c(C(=O)N(C)Cc5cccc(C)n5)cn(C)c34)C[C@@H]2N1C(=O)NCc1ccccc1 [Compound F-45]
1.7 nM | C=CCN1CC(=O)N2C(Cc3ccc(O)cc3)C(=O)N(Cc3cccc4c(C(=O)Nc5ccc(NCC)nc5)cn(C)c34)CC2N1C(=O)NCc1ccccc1 (stereo not shown) [Compound G-16]
11.4 nM | C=CCN1CC(=O)N2[C@@H](Cc3ccc(O)cc3)C(=O)N(Cc3cccc4c(C(=O)NCc5cccc(N6CCCC6)n5)cn(C)c34)C[C@@H]2N1C(=O)NCc1ccccc1 [Compound F-49]
5 nM | C=CCN1CC(=O)N2C(Cc3ccc(O)cc3)C(=O)N(Cc3cccc4c(C(=O)Nc5ccc(NCCN6CCN(C)CC6)nc5)cn(C)c34)CC2N1C(=O)NCc1ccccc1 (stereo not shown) [Compound G-30]
19.9 nM | C=CCN1CC(=O)N2C(CN(Cc3cccc4c(C(=O)Nc5ccc(N)nc5)cn(C)c34)C(=O)[C@@H]2Cc2ccc(O)cc2)N1C(=O)NCc1ccccc1 (stereo partly shown) [Compound G-9]
9.3 nM | C=CCN1CC(=O)N2C(CN(Cc3cccc4c(C(=O)Nc5ccc(NCCCO)nc5)cn(C)c34)C(=O)[C@@H]2Cc2ccc(O)cc2)N1C(=O)NCc1ccccc1 (stereo partly shown) [Compound G-19]
7.4 nM | C=CCN1CC(=O)N2C(CN(Cc3cccc4c(C(=O)Nc5ccc(N)cc5)cn(C)c34)C(=O)[C@@H]2Cc2ccc(O)cc2)N1C(=O)NCc1ccccc1 (stereo partly shown) [Compound G-8]
